According to ChEMBL document CHEMBL3988442, “University of Dundee, Small-Polar-MMV Screening Library” (2021):
Several values for one entry are separate records, joined by “and”; a condition that tells them apart may be missing. Equal entries are not always repeated.

Tests used:
[1] = test system: Leishmania donovani; assay: Leishmania intramacrophage assay; assay type: functional, organism-based; settings: for IC50: Leishmania donovani
[2] = target: T1, Histidine--tRNA ligase (Leishmania infantum, UniProt A4I591); assay: Leishmania infantum Histidine tRNA synthetase (LdHisRS); assay type: functional
T1 sequence (A4I591 whole entry): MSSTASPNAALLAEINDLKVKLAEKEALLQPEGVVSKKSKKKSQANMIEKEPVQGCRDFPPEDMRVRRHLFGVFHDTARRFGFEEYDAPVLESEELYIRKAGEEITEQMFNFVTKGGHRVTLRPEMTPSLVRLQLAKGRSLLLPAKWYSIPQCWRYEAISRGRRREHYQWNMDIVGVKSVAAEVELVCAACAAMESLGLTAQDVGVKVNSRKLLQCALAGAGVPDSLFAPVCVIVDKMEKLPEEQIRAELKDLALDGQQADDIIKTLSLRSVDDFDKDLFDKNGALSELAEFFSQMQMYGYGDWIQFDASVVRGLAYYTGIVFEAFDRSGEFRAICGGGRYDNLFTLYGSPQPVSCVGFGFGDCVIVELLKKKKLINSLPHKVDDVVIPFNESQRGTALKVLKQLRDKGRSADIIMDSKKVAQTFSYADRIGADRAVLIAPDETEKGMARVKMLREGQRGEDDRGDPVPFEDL

[3] = target: ClpP1P2 (Mycobacterium tuberculosis (strain ATCC 25618 / H37Rv), UniProt P9WPC3+P9WPC5); assay: in vitro assay to detect presence of AMC directly proportional to the activity of ClpP1P2. GHDDI collaboration.; assay type: functional
[4] = target: Tryptophan--tRNA ligase (Mycobacterium tuberculosis (strain ATCC 25618 / H37Rv), UniProt P9WFT3); assay: Biochemical assay for Mt-TrpRS; assay type: functional
[5] = In vitro enzyme assay to detect hydrolysis of chlorophenol red-beta-D-[…] directly proportional to the number of Toxoplasma stably expressing beta-galactosidase; assay type: functional, organism-based, Toxoplasma gondii
[6] = microbe, parasite or virus in culture; settings: Mycobacterium tuberculosis, 96 h, read-out: pIC50 (converted)
[7] = microbe, parasite or virus in culture; settings: Mycobacterium tuberculosis, 72 h, read-out: pIC50 (converted)

SMILES: Cc1c(C(=O)O)sc2nc(Cc3ccccc3)nc(N)c12
- IC50 [1]: > 50.1 µM

SMILES: O=C(Cn1c(-c2ccco2)cc2cccnc21)N1CCCC1
- IC50 [2]: 21.5 µM and 27.9 µM
- IC50 [3]: > 100 µM

SMILES: CCc1cc(N2CCCNCC2)n2nc(C)c(C)c2n1
- IC50 [1]: > 50.1 µM

SMILES: Cc1ccc(N2CCC3(CN(CCO)CCC3(F)F)C2)nn1 (stereo not drawn)
- IC50 [1]: > 50.1 µM

SMILES: CCCC(=O)N1CCC(c2ncc3c(n2)CCNC3)CC1
- IC50 [1]: > 50.1 µM

SMILES: Cc1sc2nc(CCN)nc(N3CCN(S(C)(=O)=O)CC3)c2c1C
- IC50 [1]: > 50.1 µM

SMILES: N#CCCSc1sc2c(O)cc(O)nc2c1C#N
- IC50 [4]: > 195 µM
- IC50 [2]: 18.7 µM and 27.5 µM

SMILES: COc1ccc(C(NCc2cccc(C#N)c2)C2CC2)cc1 (stereo not drawn)
- IC50 [1]: > 50.1 µM

SMILES: NS(=O)(=O)NCC1(c2ccccc2Br)CC1
- IC50 [1]: > 50.1 µM

SMILES: Cc1cnc(N2CCCC3(CCCN(C)C3)C2)nc1 (stereo not drawn)
- IC50 [1]: > 50.1 µM

SMILES: CCS(=O)(=O)c1ccc(N2CCC(NC(=O)CCC(C)C)CC2)cc1
- IC50 [1]: > 50.1 µM

SMILES: Cc1nccn1CCCn1cncc1-c1ccc2c(c1)CCC(C)N2C (stereo not drawn)
- IC50 [2]: 6.86 µM and 7.15 µM
- IC50 [3]: > 100 µM

SMILES: CCNC(=O)c1ccc2ccc(N(CC)CC)n2c1
- IC50 [1]: > 50.1 µM

SMILES: O=C(NCCCN1CCCC1=O)c1ccc(-n2ccc3ccccc32)s1
- IC50 [1]: > 50.1 µM

SMILES: c1cc(CN2CCC3(CC2)CC(N2CCCC2)CO3)co1 (stereo not drawn)
- IC50 [1]: > 50.1 µM

SMILES: COCC(=O)Nc1ccnn1-c1ccc(Cl)cc1
- pIC50 [1]: 4.861
- IC50 [1]: 13.5 µM

SMILES: Cc1nc2c(c(NCc3ccc(-c4ccccn4)s3)n1)CCNCC2
- pIC50 [1]: 4.913
- IC50 [1]: 17.9 µM

SMILES: CC(=O)NCc1nnc2n1CCN(c1nc(C)nc3sccc13)CC2
- IC50 [1]: > 50.1 µM

SMILES: Cc1sc2nc(C(F)(F)F)nc(N3CCC(NS(C)(=O)=O)CC3)c2c1C
- IC50 [1]: > 50.1 µM

SMILES: CC(C)n1ccnc1C1CCCN(c2ccccn2)C1 (stereo not drawn)
- IC50 [1]: > 50.1 µM

SMILES: Cn1cc(CN2CCC(F)(F)C3(CCN(c4ncccn4)C3)C2)cn1 (stereo not drawn)
- IC50 [1]: > 50.1 µM

SMILES: Cc1nc(NCc2nncn2C2CC2)c2c(CC(C)C)csc2n1
- IC50 [1]: > 50.1 µM

SMILES: Cn1cc(-c2c(C#N)c(N)nc3c2CCc2[nH]ccc2-3)cn1
- IC50 [2]: 11.2 µM and 16.9 µM
- IC50 [3]: > 100 µM

SMILES: COc1ccccc1C1(CNc2nnc(C)c(C)c2C#N)CCOCC1
- IC50 [1]: > 50.1 µM

SMILES: Cc1[nH]/c(=N\C(=O)c2csc(NC3CCCC3)n2)sc1C
- pIC50 [5]: 5.387
- IC50 ([5]; Toxoplasma gondii): 3.16 µM
- IC50 [2]: 18 µM and 18.2 µM
- IC50 [6]: > 50.1 µM
- IC50 [7]: 19.8 µM

SMILES: Cn1cc(-c2c(C#N)c(N)nc3c2CCc2[nH]ccc2-3)cc1C#N
- IC50 [2]: 28 µM and 21.7 µM
- IC50 [3]: > 100 µM

SMILES: Cn1ccc2c(-c3cc(N4CCCCC4)ncn3)ccnc21
- IC50 [2]: 54.3 µM and 45.7 µM
- IC50 [3]: > 100 µM

SMILES: O=C(CCC1CCCC1)N1CCC(c2ncc3c(n2)CCNC3)CC1
- IC50 [1]: > 50.1 µM

SMILES: CN(C)C(=O)c1ccc2ccc(N3CCN(CC4CC4)CC3)n2c1
- IC50 [1]: > 50.1 µM

SMILES: CC(Cn1ccnc1)NCc1cc(Br)c2c(c1)OCO2 (stereo not drawn)
- IC50 [1]: > 50.1 µM

SMILES: O=C(NCCCN1CCOCC1)c1ccc(-n2ccc3ccccc32)s1
- IC50 [1]: 15.8 µM

SMILES: O=C(O)C1CCCN1c1nc(-c2ccc(Cl)c(Cl)c2)cc(C(F)(F)F)n1 (stereo not drawn)
- IC50 [1]: > 50.1 µM

SMILES: COc1ncccc1CNC(=O)C1=NN(c2ccccc2)C(=O)CN1
- IC50 [1]: > 50.1 µM

SMILES: Cn1ncc2c(N3CCCC4(CCNC4)C3)nc(C(C)(C)C)nc21 (stereo not drawn)
- pIC50 [1]: 4.611 and 4.922

SMILES: CS(=O)(=O)N1CCN(Cc2csc(-c3ncccn3)n2)CC1
- IC50 [1]: > 50.1 µM

SMILES: Cn1ccc(C(=O)N2CCCC(Cc3cccc4ncccc34)C2)n1 (stereo not drawn)
- IC50 [1]: > 50.1 µM

SMILES: Cn1ccnc1CN1CCC(F)(F)C2(CCN(c3cnccn3)C2)C1 (stereo not drawn)
- IC50 [1]: > 50.1 µM

SMILES: N#Cc1cccc(CNC(=O)C2=NN(c3ccccc3)C(=O)CN2)c1
- IC50 [1]: > 50.1 µM

SMILES: COc1ccc(Cl)cc1CNCCCn1ccnc1
- IC50 [1]: > 50.1 µM

SMILES: COc1cccc(Nc2nc(-c3ccncc3)nc3c2CNCC3)c1.Cl
- pIC50 [1]: 4.645 and 4.976

SMILES: Cc1sc2nc(CCN)nc(N3CC(N4CCCCC4)C3)c2c1C
- IC50 [1]: 23.7 µM

SMILES: CN(CC1CC1)c1ccc2ccc(C(=O)NC3CCCCC3)cn12
- IC50 [1]: > 50.1 µM

SMILES: Cn1ncc2c1CN(Cc1ccc(F)cc1)CC2COCC1CC1 (stereo not drawn)
- IC50 [1]: > 50.1 µM

SMILES: FC1(F)CCN(Cc2ccccn2)CC12CCN(c1cnccn1)C2 (stereo not drawn)
- IC50 [1]: > 50.1 µM

SMILES: CN(Cc1ccccc1)C1COC2(CCN(Cc3nccs3)CC2)C1 (stereo not drawn)
- IC50 [1]: > 50.1 µM

SMILES: c1cnc(-c2nc(CN3CCC(c4ccn[nH]4)CC3)cs2)nc1
- IC50 [1]: > 50.1 µM
